Key:
human recombinant HDAC6 = biological target: T1, human recombinant HDAC6 (Homo sapiens, UniProt Q9UBN7); test: HDAC6 enzyme activity inhibition (HDAC Fluorimetric Drug Discovery Kit); assay type: biochemical; conditions: for HDAC6 selectivity (fold): HDAC6 over HDAC1; for IC50: human recombinant HDAC6, same protocol as HDAC1
T1 construct: purchased Calbiochem Inc. 382180
T1 sequence (Q9UBN7 1-1215): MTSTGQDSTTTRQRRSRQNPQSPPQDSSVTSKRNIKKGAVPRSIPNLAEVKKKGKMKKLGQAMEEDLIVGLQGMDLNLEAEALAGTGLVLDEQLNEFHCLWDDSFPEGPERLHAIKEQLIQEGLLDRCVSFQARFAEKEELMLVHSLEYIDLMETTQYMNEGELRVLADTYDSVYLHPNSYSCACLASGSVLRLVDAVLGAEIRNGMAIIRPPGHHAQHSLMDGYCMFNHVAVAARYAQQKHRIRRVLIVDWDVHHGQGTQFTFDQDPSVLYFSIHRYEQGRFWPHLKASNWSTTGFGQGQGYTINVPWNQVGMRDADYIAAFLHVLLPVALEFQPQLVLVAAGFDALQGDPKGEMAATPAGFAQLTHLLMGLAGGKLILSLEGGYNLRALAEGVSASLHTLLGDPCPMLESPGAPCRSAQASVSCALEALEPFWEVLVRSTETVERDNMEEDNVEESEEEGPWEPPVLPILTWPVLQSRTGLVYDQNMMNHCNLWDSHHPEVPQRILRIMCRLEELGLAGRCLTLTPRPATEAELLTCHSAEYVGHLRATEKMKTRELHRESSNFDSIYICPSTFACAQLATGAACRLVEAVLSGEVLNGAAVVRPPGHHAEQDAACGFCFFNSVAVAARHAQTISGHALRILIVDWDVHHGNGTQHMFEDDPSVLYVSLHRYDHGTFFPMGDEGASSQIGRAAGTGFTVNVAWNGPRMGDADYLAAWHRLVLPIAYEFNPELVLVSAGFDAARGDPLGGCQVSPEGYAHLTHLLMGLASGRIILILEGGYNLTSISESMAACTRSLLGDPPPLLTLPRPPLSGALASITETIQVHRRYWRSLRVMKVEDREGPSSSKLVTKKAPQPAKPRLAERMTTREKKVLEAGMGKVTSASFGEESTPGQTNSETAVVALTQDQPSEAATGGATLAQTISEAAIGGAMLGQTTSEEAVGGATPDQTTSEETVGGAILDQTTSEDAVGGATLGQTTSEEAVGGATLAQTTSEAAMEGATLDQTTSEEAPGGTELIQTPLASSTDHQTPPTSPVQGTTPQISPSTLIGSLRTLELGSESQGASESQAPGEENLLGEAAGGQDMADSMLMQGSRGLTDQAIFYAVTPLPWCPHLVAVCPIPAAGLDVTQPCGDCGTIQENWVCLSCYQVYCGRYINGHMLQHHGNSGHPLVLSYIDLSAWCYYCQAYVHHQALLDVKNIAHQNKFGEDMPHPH
Outline: (§1)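 Five-fold compound dilutions incubated with […] recombinant enzyme and 10 μM fluorogenic Fluor de Lys substrate, 60 min at 30° C. Fluor de Lys Developer II then added for 30 min to generate the fluorescent read-out.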

human recombinant HDAC1 = biological target: T2, human recombinant HDAC1 (Homo sapiens, UniProt Q13547); test: HDAC1 enzyme activity inhibition (HDAC Fluorimetric Drug Discovery Kit); assay type: biochemical; conditions: human recombinant HDAC1, Fluor de Lys substrate, 30° C. 60 minutes; read-out: HDAC1
T2 construct: purchased Enzo Life Science, Inc. BML-SE456
T2 sequence (Q13547 whole entry): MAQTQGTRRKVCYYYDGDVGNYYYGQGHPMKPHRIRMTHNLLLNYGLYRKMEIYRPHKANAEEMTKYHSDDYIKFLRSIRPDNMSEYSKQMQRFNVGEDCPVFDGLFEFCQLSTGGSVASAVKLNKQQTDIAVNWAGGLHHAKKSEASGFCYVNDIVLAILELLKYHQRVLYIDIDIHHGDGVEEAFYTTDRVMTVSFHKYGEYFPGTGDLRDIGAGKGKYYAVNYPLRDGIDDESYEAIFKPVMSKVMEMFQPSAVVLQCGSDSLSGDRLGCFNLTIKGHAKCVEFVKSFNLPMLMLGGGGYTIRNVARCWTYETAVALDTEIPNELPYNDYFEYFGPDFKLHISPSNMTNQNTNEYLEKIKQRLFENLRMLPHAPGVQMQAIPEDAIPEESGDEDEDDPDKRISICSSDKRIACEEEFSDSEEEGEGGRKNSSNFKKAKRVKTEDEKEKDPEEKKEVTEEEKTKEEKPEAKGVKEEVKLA
Outline: as §1

HDAC6 selectivity (fold) (human recombinant HDAC6) | IC50 (human recombinant HDAC6) | IC50 (human recombinant HDAC1) | Structure (SMILES)
2380 fold | 21 nM | > 50000 nM | CN(C)[C@@H]1CCN(Cc2ccc(-c3cn(Cc4ccc(-c5nnc(C(F)F)o5)cc4F)nn3)cc2)C1 [Compound 4605, (R)-1-(4-(1-(4-(5-(difluoromethyl)-1,3,4-oxadiazol-2-yl)-2-fluorobenzyl)-1H-1,2,3-triazol-4-yl)benzyl)-N,N-dimethylpyrrolidin-3-amine]
2415 fold | 20.7 nM | > 50000 nM | Fc1cc(-c2nnc(C(F)F)o2)ccc1Cn1cc(-c2ccc(CN3CC[C@H](F)C3)cc2)nn1 [Compound 4606, (S)-2-(difluoromethyl)-5-(3-fluoro-4-((4-(4-((3-fluoropyrrolidin-1-yl)methyl)phenyl)-1H-1,2,3-triazol-1-yl)methyl)phenyl)-1,3,4-oxadiazole]
2512 fold | 19.9 nM | > 50000 nM | Fc1cc(-c2nnc(C(F)F)o2)ccc1Cn1cc(-c2ccc(CN3CC[C@@H](F)C3)cc2)nn1 [Compound 4607, (R)-2-(difluoromethyl)-5-(3-fluoro-4-((4-(4-((3-fluoropyrrolidin-1-yl)methyl)phenyl)-1H-1,2,3-triazol-1-yl)methyl)phenyl)-1,3,4-oxadiazole]
1893 fold | 26.4 nM | > 50000 nM | CCN(CC)Cc1ccc(-c2cn(Cc3ccc(-c4nnc(C(F)F)o4)cc3F)nn2)cc1 [Compound 4608, N-(4-(1-(4-(5-(difluoromethyl)-1,3,4-oxadiazol-2-yl)-2-fluorobenzyl)-1H-1,2,3-triazol-4-yl)benzyl)-N-ethylethanamine]
3164 fold | 15.8 nM | > 50000 nM | Fc1cc(-c2nnc(C(F)F)o2)ccc1Cn1cc(-c2ccc(CNC3CCCC3)cc2)nn1 [Compound 4609, N-(4-(1-(4-(5-(difluoromethyl)-1,3,4-oxadiazol-2-yl)-2-fluorobenzyl)-1H-1,2,3-triazol-4-yl)benzyl)cyclopentanamine]
3496 fold | 14.3 nM | > 50000 nM | Fc1cc(-c2nnc(C(F)F)o2)ccc1Cn1cc(-c2ccc(CN3CCCCC3)cc2)nn1 [Compound 4610, 2-(difluoromethyl)-5-(3-fluoro-4-((4-(4-(piperidin-1-ylmethyl)phenyl)-1H-1,2,3-triazol-1-yl)methyl)phenyl)-1,3,4-oxadiazole]
2793 fold | 17.9 nM | > 50000 nM | CC1CCN(Cc2ccc(-c3cn(Cc4ccc(-c5nnc(C(F)F)o5)cc4F)nn3)cc2)CC1 [Compound 4611, 2-(difluoromethyl)-5-(3-fluoro-4-((4-(4-((4-methylpiperidin-1-yl)methyl)phenyl)-1H-1,2,3-triazol-1-yl)methyl)phenyl)-1,3,4-oxadiazole]
2074 fold | 24.1 nM | > 50000 nM | CCN1CCN(c2cc(-c3cn(Cc4ccc(-c5nnc(C(F)F)o5)cc4F)nn3)ccn2)CC1 [Compound 4634, 2-(difluoromethyl)-5-(4-((4-(2-(4-ethylpiperazin-1-yl)pyridin-4-yl)-1H-1,2,3-triazol-1-yl)methyl)-3-fluorophenyl)-1,3,4-oxadiazole]
2525 fold | 19.8 nM | > 50000 nM | CC(C)N1CCN(c2cc(-c3cn(Cc4ccc(-c5nnc(C(F)F)o5)cc4F)nn3)ccn2)CC1 [Compound 4635]
1567 fold | 31.9 nM | > 50000 nM | Fc1cc(-c2nnc(C(F)F)o2)ccc1Cn1cc(-c2ccnc(N3CCN(C4COC4)CC3)c2)nn1 [Compound 4636]
807 fold | 61.9 nM | > 50000 nM | Fc1cc(-c2nnc(C(F)F)o2)ccc1Cn1cc(-c2ccnc(N3CCN(C4CCC4)CC3)c2)nn1 [Compound 4640, 2-(4-((4-(2-(4-cyclobutylpiperazin-1-yl)pyridin-4-yl)-1H-1,2,3-triazol-1-yl)methyl)-3-fluorophenyl)-5-(difluoromethyl)-1,3,4-oxadiazole]
546 fold | 91.5 nM | > 50000 nM | Fc1cc(-c2nnc(C(F)F)o2)ccc1Cn1cc(-c2ccc(Cl)nc2)nn1 [Compound 16781, 2-(4-((4-(6-chloropyridin-3-yl)-1H-1,2,3-triazol-1-yl)methyl)-3-fluorophenyl)-5-(difluoromethyl)-1,3,4-oxadiazole]
628 fold | 79.5 nM | > 50000 nM | CN1CCN(c2ccc(-c3cn(Cc4ccc(-c5nnc(C(F)F)o5)cc4F)nn3)cn2)CC1 [Compound 16789, 2-(difluoromethyl)-5-(3-fluoro-4-((4-(6-(4-methylpiperazin-1-yl)pyridin-3-yl)-1H-1,2,3-triazol-1-yl)methyl)phenyl)-1,3,4-oxadiazole]
738 fold | 67.7 nM | > 50000 nM | Fc1cc(-c2nnc(C(F)F)o2)ccc1Cn1cc(-c2ccc(N3CCNCC3)cc2F)nn1 [Compound 16797, 2-(difluoromethyl)-5-(3-fluoro-4-((4-(2-fluoro-4-(piperazin-1-yl)phenyl)-1H-1,2,3-triazol-1-yl)methyl)phenyl)-1,3,4-oxadiazole]
586 fold | 85.3 nM | > 50000 nM | Fc1cc(-c2nnc(C(F)F)o2)ccc1Cn1cc(-c2ccc(Br)cn2)nn1 [Compound 16928, 2-(4-((4-(5-bromopyridin-2-yl)-1H-1,2,3-triazol-1-yl)methyl)-3-fluorophenyl)-5-(difluoromethyl)-1,3,4-oxadiazole]
1043 fold | 47.9 nM | > 50000 nM | Fc1cc(-c2nnc(C(F)F)o2)ccc1Cn1cc(-c2cncc(Br)c2)nn1 [Compound 16930, 2-(4-((4-(5-bromopyridin-3-yl)-1H-1,2,3-triazol-1-yl)methyl)-3-fluorophenyl)-5-(difluoromethyl)-1,3,4-oxadiazole]
2777 fold | 18 nM | > 50000 nM | Fc1cc(-c2nnc(C(F)F)o2)ccc1Cn1cc(-c2cncc(-c3cn[nH]c3)c2)nn1 [Compound 17058, 2-(4-((4-(5-(1H-pyrazol-4-yl)pyridin-3-yl)-1H-1,2,3-triazol-1-yl)methyl)-3-fluorophenyl)-5-(difluoromethyl)-1,3,4-oxadiazole]
1012 fold | 49.4 nM | > 50000 nM | Fc1cc(-c2nnc(C(F)F)o2)ccc1Cn1cc(-c2cn[nH]c2)nn1 [Compound 17261, 2-(4-((4-(1H-pyrazol-4-yl)-1H-1,2,3-triazol-1-yl)methyl)-3-fluorophenyl)-5-(difluoromethyl)-1,3,4-oxadiazole]
1126 fold | 44.4 nM | > 50000 nM | Fc1cc(-c2nnc(C(F)F)o2)ccc1Cn1cc(-c2cccc(Br)n2)nn1 [Compound 17263, 2-(4-((4-(6-bromopyridin-2-yl)-1H-1,2,3-triazol-1-yl)methyl)-3-fluorophenyl)-5-(difluoromethyl)-1,3,4-oxadiazole]
628 fold | 79.6 nM | > 50000 nM | Fc1cc(-c2nnc(C(F)F)o2)cnc1Cn1cc(-c2ccccc2)nn1 [Compound 17347, 2-(difluoromethyl)-5-(5-fluoro-6-((4-phenyl-1H-1,2,3-triazol-1-yl)methyl)pyridin-3-yl)-1,3,4-oxadiazole]
2032 fold | 24.6 nM | > 50000 nM | CCN1CCN(c2cccc(-c3cn(Cc4ccc(-c5nnc(C(F)F)o5)cc4F)nn3)n2)CC1 [Compound 17362, 2-(difluoromethyl)-5-(4-((4-(6-(4-ethylpiperazin-1-yl)pyridin-2-yl)-1H-1,2,3-triazol-1-yl)methyl)-3-fluorophenyl)-1,3,4-oxadiazole]

Reference: patent US20230257372A1 (CHONG KUN DANG PHARMACEUTICAL CORP., priority 2020, published 2023)
